Results published in ChEMBL document CHEMBL1137587, “MCH-R1 antagonists based on an arginine scaffold: SAR studies on the amino-terminus” (Bioorg Med Chem Lett, 2007).

Target: Melanin-concentrating hormone receptor 1 (Homo sapiens, UniProt Q99705)
Assay: Functional antagonism of MCH-R1 expressed in HEK293 cells
Assay type: cell-based

Chain of Melanin-concentrating hormone receptor 1 (Q99705 whole entry): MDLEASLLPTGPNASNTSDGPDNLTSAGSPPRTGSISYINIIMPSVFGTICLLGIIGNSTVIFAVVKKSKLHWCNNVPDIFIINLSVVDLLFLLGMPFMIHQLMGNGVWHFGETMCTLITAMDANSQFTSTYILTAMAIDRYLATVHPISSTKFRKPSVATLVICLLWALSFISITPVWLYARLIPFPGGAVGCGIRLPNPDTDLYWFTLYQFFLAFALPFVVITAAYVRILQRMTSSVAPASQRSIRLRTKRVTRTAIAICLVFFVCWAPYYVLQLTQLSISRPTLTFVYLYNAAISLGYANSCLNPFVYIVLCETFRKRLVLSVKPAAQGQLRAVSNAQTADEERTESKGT

| Structure (SMILES) | IC50 [nM] |
| --- | --- |
| N=C(N)NCCC[C@@H](NC(=O)C(c1ccccc1)c1ccccc1)C(=O)NCc1ccc(C(F)(F)F)cc1 | 112 |
| N=C(N)NCCC[C@@H](NC(=O)c1ccnc2ccccc12)C(=O)NCc1ccc(C(F)(F)F)cc1 | 1030 |
| N=C(N)NCCC[C@@H](NC(=O)C1c2ccccc2Oc2ccccc21)C(=O)NCc1ccc(C(F)(F)F)cc1 | 4 |
| COc1ccc2[nH]c(C(=O)N[C@H](CCCNC(=N)N)C(=O)NCc3ccc(C(F)(F)F)cc3)cc2c1 | 78 |
| N=C(N)NCCC[C@@H](NC(=O)Cc1csc2ccccc12)C(=O)NCc1ccc(C(F)(F)F)cc1 | 1010 |
| N=C(N)NCCC[C@@H](NC(=O)C1c2ccccc2Cc2ccccc21)C(=O)NCc1ccc(C(F)(F)F)cc1 | 763 |
| N=C(N)NCCC[C@@H](NC(=O)c1cc2cc(F)ccc2[nH]1)C(=O)NCc1ccc(C(F)(F)F)cc1 | 25 |
| N=C(N)NCCC[C@@H](NC(=O)c1csc2ccccc12)C(=O)NCc1ccc(C(F)(F)F)cc1 | 952 |
| COc1cccc2cc(C(=O)N[C@H](CCCNC(=N)N)C(=O)NCc3ccc(C(F)(F)F)cc3)oc12 | 622 |
| N=C(N)NCCC[C@@H](NC(=O)C1c2ccccc2-c2ccccc21)C(=O)NCc1ccc(C(F)(F)F)cc1 | 5 |

Next, values leading:

| IC50 [nM] | Structure (SMILES) |
| --- | --- |
| 1800 | N=C(N)NCCC[C@@H](NC(=O)c1cccc2ccccc12)C(=O)NCc1ccc(C(F)(F)F)cc1 |
| 313 | N=C(N)NCCC[C@@H](NC(=O)c1cc2ccccc2o1)C(=O)NCc1ccc(C(F)(F)F)cc1 |
| 20 | N=C(N)NCCC[C@@H](NC(=O)c1cc2ccccc2[nH]1)C(=O)NCc1ccc(C(F)(F)F)cc1 |
| 243 | N=C(N)NCCC[C@@H](NC(=O)Cc1cccc2ccccc12)C(=O)NCc1ccc(C(F)(F)F)cc1 |
| 443 | COc1ccc2cc(C(=O)N[C@H](CCCNC(=N)N)C(=O)NCc3ccc(C(F)(F)F)cc3)ccc2c1 |
| 45 | N=C(N)NCCC[C@@H](NC(=O)c1cc2ccccc2s1)C(=O)NCc1ccc(C(F)(F)F)cc1 |
| 212 | N=C(N)NCCC[C@@H](NC(=O)c1ccc2ccccc2c1)C(=O)NCc1ccc(C(F)(F)F)cc1 |
| 1810 | N=C(N)NCCC[C@@H](NC(=O)c1cc2ccccc2cn1)C(=O)NCc1ccc(C(F)(F)F)cc1 |
| 512 | N=C(N)NCCC[C@@H](NC(=O)Cc1cc2ccccc2[nH]1)C(=O)NCc1ccc(C(F)(F)F)cc1 |
| 96 | N=C(N)NCCC[C@@H](NC(=O)c1cnc2ccccc2c1)C(=O)NCc1ccc(C(F)(F)F)cc1 |
| 904 | N=C(N)NCCC[C@@H](NC(=O)c1ccc2ccccc2n1)C(=O)NCc1ccc(C(F)(F)F)cc1 |
| 311 | N=C(N)NCCC[C@@H](NC(=O)c1ccc(F)c2ccccc12)C(=O)NCc1ccc(C(F)(F)F)cc1 |
